Source: the METLIN SMRT retention time set (Domingo-Almenara et al. 2019)

Assay: gradient 5% acetonitrile 3 min, to 50% in 2 min, to 85% in 15 min, held 3 min, 100 µL/min
Details: column: Zorbax Extend-C18 2.1 x 50 mm; eluents: water / acetonitrile, 0.1% formic acid
Outline: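 Retention time was recorded from adduct peaks, which were picked computationally and each inspected manually. Pure standards ran in mixtures of ~100 molecules on HPLC coupled to a quadrupole time-of-flight mass spectrometer, in positive and negative ionization mode, through a Zorbax Extend-C18 column (2.1 × 50 mm, 1.8 μm) at 100 μL/min. Eluents were water and acetonitrile, each with 0.1% formic acid.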

SMILES | RP-LC retention time
COc1ccc(OC)c(NC(=O)C2CCCN2S(=O)(=O)c2ccc3c(c2)NC(=O)CO3)c1 (stereo not drawn) | 803 s
Cc1cc(C)cc(NC(=O)C2CCN(S(=O)(=O)c3c(C)[nH]c(C)c3C(=O)N3CCCC3)CC2)c1 | 695 s
CCNC(=O)C1CCN(c2cnn(Cc3ccccc3)c(=O)c2)CC1 | 674 s
O=C(COc1ccccc1)NCCS(=O)(=O)N1CCN(c2cccc(Cl)c2)CC1 | 926 s
Cc1ccc(-c2cc3c(N4CCCC(C(=O)NCc5ccc6c(c5)OCO6)C4)nccn3n2)c(C)c1 (stereo not drawn) | 938 s
CCN(CC)CCCNC(=O)C1CCN(C(=O)c2oc3cc4sc(N(C)C)nc4cc3c2C)CC1 | 564 s
Cc1ccc(CNC(=O)c2ncn3c2C(=O)N(C2CC2)C(C)(C(=O)NC2CCCC2)C3)cc1 (stereo not drawn) | 770 s
O=C(O)c1cnc(-c2ccc(F)cc2)nc1-c1ccncc1 | 690 s
Cc1cc(Nc2ccc(F)cc2)nc2nn(Cc3cc(=O)n4ccccc4n3)c(=O)n12 | 836 s
COc1ccc(NC(=O)CN2CCc3[nH]c4c(C)cc(F)cc4c(=O)c3C2)cc1 | 600 s
COc1cccc(CN2CC=C(C(=O)N3CCN(c4ccccc4)CC3)CC2)c1 | 664 s
CCC1CCCCN1C(=O)CN1CN(c2ccc(C)cc2)c2ncccc2S1(=O)=O (stereo not drawn) | 1030 s
CS(=O)(=O)N1CCC(OC2CCN(C(=O)Nc3ccc(Cl)cc3F)CC2)CC1 | 783 s
O=C(NCc1cccnc1)C1CCCN(c2ncnc3c2nc2n3CCCCC2)C1 (stereo not drawn) | 577 s
Cn1nnnc1SCC(=O)OCc1cc(-c2ccco2)on1 | 728 s
CC(C)Cn1c(=O)c(N2CCC(NC(=O)NCc3ccccc3)CC2)nc2ccccc21 | 980 s
COc1ccc(-c2cnn3c(C)cc(C)nc23)cc1S(=O)(=O)NCCN(C)C | 616 s
CSc1nnc(C)c(=O)n1COC(=O)c1cc(C(F)(F)F)cc(C(F)(F)F)c1 | 932 s
O=C(CCCNC(=O)c1cc(-c2ccco2)on1)Nc1cccc2cccnc12 | 805 s
Cc1sc(NC(=O)c2cccc(Br)c2)nc1-c1ccc2c(c1)N(C)C(=O)CO2 | 943 s
CN1CCN(c2ccccc2NC(=O)C2CCCN(c3ncnc4c3nc3n4CCCCC3)C2)CC1 (stereo not drawn) | 635 s
O=C(Cc1ccccc1)N1[C@H]2CC[C@@H]1c1cnc(-c3ccccc3)nc1C2 | 898 s

SMILES | RP-LC retention time
COCCNC(=O)CN1c2ccc(F)cc2-c2ccccc2S1(=O)=O | 756 s
CCOC(=O)C1=C(C)NC(=O)NC1c1nc2ccccc2n1CC (stereo not drawn) | 597 s
Cc1cccn2c(NC(=O)c3ccc(Br)cc3)c(-c3ccccc3)nc12 | 715 s
Cc1ccc(OCCC2CCNC2)cc1 (stereo not drawn) | 646 s
COc1cccc(NC(=O)Cn2ccnc2-c2ccnc(N3CCCC3)c2)c1 | 602 s
COCCNS(=O)(=O)c1ccc(-c2c(C)noc2C)cc1 | 764 s
CCN1CCN(CCNC(=O)C2CCN(C(=O)c3ccc(-n4ccc5ccccc54)s3)CC2)CC1 | 597 s
Fc1cccc(-n2cc(-c3noc(-c4ccccc4F)n3)nn2)c1 | 1050 s
Cc1nc(-c2ccccc2Cl)sc1C(=O)N[C@@H](Cc1c[nH]c2ccccc12)C(=O)O | 898 s
O=C(Nc1ccc(F)cc1F)N1CCc2nc[nH]c2C1 | 568 s
O=C(CN1C(=O)CCCc2cc(S(=O)(=O)N3CCCCCC3)ccc21)NC1CCCCC1 | 987 s
Cc1ccc(Oc2cccc(C(=O)NCCNc3cc(-n4cccn4)ncn3)c2)nn1 | 615 s
Cc1ccc(NS(=O)(=O)c2n[nH]c(C)c2C(=O)NCCc2cccs2)cc1 | 912 s
O=C(c1cn2ccccc2n1)N1CCN(c2ccc(F)cc2)CC1 | 652 s
CC(=O)Nc1nsc(N2CCCC(C(=O)N3CCN(c4cc(C)ccc4C)CC3)C2)n1 (stereo not drawn) | 843 s
Cc1ccc(NC(=O)Cn2nc(N(C)C)c3ccccc3c2=O)c(C)c1 | 869 s
COc1ccc(C2Cn3cnc(C(=O)N4CCC(C(=O)NCCC5=CCCCC5)CC4)c3CO2)cc1 (stereo not drawn) | 831 s
CCOc1ccc(NC(=O)c2nc(N(C)C)c3c(C)cc(C)nc3n2)cc1 | 661 s
Cc1ccc(CNC(=O)C2(C)Cn3cnc(C(=O)NCCc4ccccc4)c3C(=O)N2C2CC2)cc1 (stereo not drawn) | 816 s
CCOc1cccc(C2c3[nH]c4ccccc4c3CCN2C(=O)c2ccco2)c1 (stereo not drawn) | 1130 s
O=C(NCc1ccc(F)cc1)c1c(O)c2cccnc2n(-c2cccc(F)c2)c1=O | 1140 s
Cn1nc(-c2nnc(-c3ccc(F)cc3)o2)c2c1CCN(S(=O)(=O)c1cccc(F)c1)C2 | 963 s

SMILES | RP-LC retention time
COc1ccc(S(=O)(=O)N2CCCC(C(=O)Nc3ccc(Cl)c(Cl)c3)C2)cc1C (stereo not drawn) | 1180 s
CCOC(=O)c1noc2ncnc(N3CCN(c4ccc(F)cc4)CC3)c12 | 1010 s
COc1ccc(-c2cc3nn(CC(=O)N4CCc5ccccc54)c(=O)n3c(C)n2)cc1 | 856 s
Cc1ccc(C)c(N2CCN(S(=O)(=O)c3cc(-c4csc(C)n4)sc3C)CC2)c1 | 1360 s
Cc1nc2n(c(=O)c1C)CCN2CC(=O)NCc1ccccc1Cl | 652 s
CCC(=O)Nc1ccc(N2CCN(CC(=O)N(C)C)CC2)cc1C(=O)O | 573 s
CCn1cc(CN2CCCC(Cn3cc(COC)nn3)C2)c2ccccc21 (stereo not drawn) | 565 s
Cc1nc(CCNC(=O)C2CCN(S(=O)(=O)c3ccc(Cl)cc3)CC2)cs1 | 755 s
COc1ccc(-n2ncc(C(=O)N3CCN(C(=O)c4ccco4)CC3)c2-n2cccc2)cc1 | 717 s
c1ccc(-c2noc(C3CNC3)n2)cc1 | 557 s
Cc1[nH]c(C(=O)N2CCCC(C(=O)NC(C)CCc3ccccc3)C2)c(C)c1C(=O)OC(C)C (stereo not drawn) | 955 s
O=C(Nc1cccc(OCc2nnc(-c3ccccc3)o2)c1)c1ccsc1 | 914 s
O=C(NCCc1ccccc1)c1cc2sccc2n1Cc1ccc(F)cc1 | 1140 s
COc1ccc(-c2nc(C)c(CCNS(=O)(=O)c3ccc4c(c3)OCCO4)s2)cc1 | 831 s
COCCNC(=O)C1CCN(c2cnn(Cc3ccccc3)c(=O)c2)CC1 | 661 s
CC(C)CCNC(=O)Cn1ccn2nc(-c3ccc(F)cc3)c(CO)c2c1=O | 804 s
N#Cc1cccc(-c2cn3c(n2)N(C(=O)CC2CCCC2)CCC3)c1 | 848 s
Cc1ccc(-c2nc3nc(C)cc(N(CCO)CCO)n3n2)cc1 | 614 s
COCCN(Cc1ccc(C(C)C)cc1)Cc1cc(=O)n2cccc(C)c2n1 | 728 s
Cc1noc(C)c1CCC(=O)N1CCc2nn(CC#N)c(=O)n2CC1 | 630 s
O=C(Nc1cnc(-c2cccc(Cl)c2)nc1)C1CCCC1 | 1100 s
CCOC(=O)C1CCN(C(=O)C2CCN(S(=O)(=O)c3ccc(OCC)cc3)CC2)CC1 | 878 s

SMILES | RP-LC retention time
CCS(=O)(=O)N1CCC(F)(c2nc(-c3ccccc3)no2)CC1 | 952 s
CN1C(=O)COc2ccc(-c3csc(NC(=O)C(C)(C)C)n3)cc21 | 856 s
CCOC(=O)COc1cc(-c2ccc(F)cc2)nc2ccc(NC(=O)COc3ccccc3)cc12 | 924 s
O=C(Cn1cc(-c2ccccc2)c2ncnc(N3CCOCC3)c21)N1CCN(c2ccccc2)CC1 | 717 s
CCOC(=O)N1CCC(NC(=O)c2cc3sc(Cl)cc3n2CC)CC1 | 985 s
CCc1ccc(NC(=O)N(C)CCc2noc(COc3ccccc3)n2)cc1 | 962 s
O=P(Oc1ccccc1)(Oc1ccccc1)c1ccccc1 | 1070 s
CCN1CCN(c2ccc(NC(=O)c3ccc(Cl)s3)cn2)C1=O | 742 s
CC(C)c1nc(C2CN(C(=O)Nc3ccc(Cl)cc3)C2)n(C)n1 | 704 s
CCCNC(=O)C1CCN(S(C)(=O)=O)c2ccccc2O1 (stereo not drawn) | 708 s
CCC(=O)Nc1ccc(CCc2nc3ccc(C(=O)NC4CCCC4)cc3[nH]2)cc1 | 625 s
Cc1nc2cc3c(cc2n1CC(=O)Nc1cccc(C(F)(F)F)c1)OCCO3 | 712 s
Cc1ccc(S(=O)(=O)c2cnc(N3CCN(c4ccccn4)CC3)nc2N)cc1 | 1160 s
CCNc1nc(C)cc(N2CCN(C(=O)Nc3cc(C)cc(C)c3)CC2)n1 | 702 s
CCC(C)NC(=O)Cn1c(=O)ccc2cc(S(=O)(=O)N3CCC(C)CC3)ccc21 (stereo not drawn) | 833 s
COc1ccc(-n2c(=O)n(C)c(=O)c3cc(C(=O)NCc4ccc(F)cc4)cnc32)cc1 | 849 s
O=C1C(=O)N(Cc2ccc(C(=O)N3CCCC3)cc2)CCN1Cc1ccc(F)cc1 | 702 s
O=C(Cn1nc2n(c1=O)CCCCC2)NCc1ccccc1Cl | 719 s
Cc1cc2c(c(=O)n(-c3ccccc3)c(=O)n2CC(=O)N(C)c2ccccc2)n1C | 806 s
Cc1cccc(CN2C[C@@H]3C(=O)N(Cc4ccc5c(c4)OCO5)C(=O)[C@@H]3C2)c1 | 734 s
CCn1cnc2ccc(-c3noc(Cc4ccc(F)cc4)n3)cc21 | 742 s
CN1C(=O)CN=C(c2ccccc2)c2cc([N+](=O)[O-])ccc21 | 869 s
